For assay [1], the target named is T1, human calcitonin receptor (CTR) (Homo sapiens, UniProt P30988).
T1 construct: expressed in transfected cells; host or cells: COS-7 (COS7-human CTR Clone #2)
T1 sequence (P30988 25-474): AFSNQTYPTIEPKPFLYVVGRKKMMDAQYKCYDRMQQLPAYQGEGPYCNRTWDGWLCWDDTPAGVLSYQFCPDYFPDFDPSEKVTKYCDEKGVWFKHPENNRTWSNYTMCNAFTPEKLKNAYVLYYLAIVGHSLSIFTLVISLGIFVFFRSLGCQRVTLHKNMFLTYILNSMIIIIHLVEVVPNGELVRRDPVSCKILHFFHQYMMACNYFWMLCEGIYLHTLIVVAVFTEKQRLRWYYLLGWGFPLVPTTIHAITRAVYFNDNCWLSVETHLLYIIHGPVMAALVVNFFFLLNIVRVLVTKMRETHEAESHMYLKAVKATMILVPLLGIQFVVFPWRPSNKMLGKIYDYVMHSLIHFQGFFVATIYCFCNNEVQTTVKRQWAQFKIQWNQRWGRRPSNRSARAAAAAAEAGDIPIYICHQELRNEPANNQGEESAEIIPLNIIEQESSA
The assay can be described thus: Calcitonin receptor (CTR) cAMP Assay. It is filed as cell-based. The note with it: COS7-human CTR Clone #2 cells, cAMP dynamic 2 kit; read-out: Calcitonin Receptor cAMP Stimulation Activity: EC50. The essentials:
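COS-7 cells stably expressing human CTR (2000 cells/well) treated with 4-fold serially diluted compounds in HBSS/20 mM HEPES/0.5 mM IBMX/0.1% casein, 30 min at 37° C. cAMP quantified by HTRF (cAMP-d2 plus anti-cAMP cryptate, 1 h RT), fluorescence read at 665 and 615 nm.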

In assay [2] the target is human calcitonin receptor (CTR) and RAMP3 (AMY3) (Homo sapiens, UniProt O60896+P30988). Put plainly: Amylin Receptor cAMP Assay I. It is filed as cell-based. The note with it: COS-7/AMY3 cells, cAMP Hi-range Kit, read-out: Amylin Receptor cAMP Stimulation Activity: EC50. The gist of the method:
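COS-7 cells stably co-expressing human CTR and RAMP3, 1000 cells/well, exposed to 4-fold serially diluted compound in DPBS with 0.5 mM IBMX and 0.1% BSA for 30 min at 37° C. cAMP accumulation measured by HTRF (cAMP-d2 plus anti-cAMP cryptate, 1 h room temperature), read at 665/615 nm.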

By EC50 is commonly meant the midpoint of the concentration-response curve.

Sequence of human calcitonin receptor (CTR) and RAMP3 (AMY3) (O60896 24-148, one chain of several): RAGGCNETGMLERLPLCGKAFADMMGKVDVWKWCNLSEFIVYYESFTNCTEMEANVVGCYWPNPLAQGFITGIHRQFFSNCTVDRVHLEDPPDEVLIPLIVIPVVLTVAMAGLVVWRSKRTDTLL

Regarding `Cc1nnc(-c2c(CCc3ccc(F)cc3)nc3c(c2-c2ccc(C(=O)NCc4ccc(F)c(F)c4)s2)c(=O)n2n3CCC2)o1` [Compound 15, N-(3,4-difluorophenyl)methyl-5-(11-[2-(p-fluorophenyl)ethyl]-10-(5-methyl-1,3,4-oxadiazol-2-yl)-7-oxo-2,6,12-triazatricyclo[6.4.0.0^2,6]dodeca-1(12),8,10-trien-9-yl}-2-thenamide], the concentration for a half-maximal effect (EC50) was determined as 17 nM in assay [1] and 88.4 nM in assay [2].

For the compound `Cc1nnc(-c2c(CCc3ccc(F)cc3)nc3c(c2-c2ccc(C(=O)NCc4ccc(F)c(F)c4)s2)S(=O)(=O)N2CCC[C@@H]32)o1` [Compound 17, (S)—N-(3,4-difluorobenzyl)-5-(2-(4-fluorophenethyl)-3-(5-methyl-1,3,4-oxadiazol-2-yl)-5,5-dioxido-7,8,9,9a-tetrahydropyrrolo[1′,2′:2,3]isothiazolo[4,5-b]pyridin-4-yl)thiophene-2-carboxamide], the EC50 was found to be 5.5 nM in assay [1] and 65.8 nM in assay [2].

For the compound `Cc1nnc(-c2c(CCc3ccc(F)cc3)nc3c(c2-c2ccc(C(=O)NCc4ccc(F)c(F)c4)s2)S(=O)(=O)N[C@H]3C(C)C)o1` [Compound 18, (S)—N-(3,4-difluorobenzyl)-5-(5-(4-fluorophenethyl)-3-isopropyl-6-(5-methyl-1,3,4-oxadiazol-2-yl)-1,1-dioxido-2,3-dihydroisothiazolo[4,5-b]pyridin-7-yl)thiophene-2-carboxamide], the EC50 in assay [1] came out at 2 nM; in assay [2], 31.1 nM.

With `Cc1nnc(-c2c(CCc3ccc(F)cc3)nc3c(c2-c2ccc(C(=O)NCc4ccc(F)c(F)c4)s2)S(=O)(=O)CC3C(C)C)o1` (stereo not drawn) [Compound 19, N-(3,4-difluorobenzyl)-5-(5-(4-fluorophenethyl)-3-isopropyl-6-(5-methyl-1,3,4-oxadiazol-2-yl)-1,1-dioxido-2,3-dihydrothieno[3,2-b]pyridin-7-yl)thiophene-2-carboxamide], the EC50 came out at 5.3 nM in assay [1] and 25.3 nM in assay [2].

As for `Cc1nnc(-c2c(CCC3CCOCC3)nc3c(c2-c2ccc(C(=O)NCc4ccc(F)c(F)c4)s2)C(=O)N2CCC[C@@H]32)o1` [Compound 29], the EC50 in assay [1] was found to be 31 nM; in assay [2], 128 nM.

As for `Cc1nnc(-c2c(CCc3ccc(F)cc3F)nc3c(c2-c2ccc(C(=O)NCc4ccc(F)c(F)c4)s2)C(=O)N2CCC[C@@H]32)o1` [Compound 42, 5-[(9aS)-2-[2-(2,4-difluorophenyl)ethyl]-3-(5-methyl-1,3,4-oxadiazol-2-yl)-5-oxo-7,8,9,9a-tetrahydropyrido[2,3-a]pyrrolizin-4-yl]-N-[(3,4-difluorophenyl)methyl]thiophene-2-carboxamide], the figures for the EC50 in assay [1] and in assay [2] were 14 nM and 114 nM, respectively.

As for `Cc1nnc(-c2c(CCC3CCCOC3)nc3c(c2-c2ccc(C(=O)NCc4ccc(F)c(F)c4)s2)C(=O)N2CCC[C@@H]32)o1` (stereo partly drawn) [Compound 61, N-(3,4-difluorobenzyl)-5-((9aS)-3-(5-methyl-1,3,4-oxadiazol-2-yl)-5-oxo-2-(2-(tetrahydro-2H-pyran-3-yl)ethyl)-7,8,9,9a-tetrahydro-5H-pyrido[2,3-a]pyrrolizin-4-yl)thiophene-2-carboxamide], the EC50 in assay [1] came out at 39 nM; in assay [2] it was 178 nM.

As for `Cc1nnc(-c2c(CCC3CCOCC3)nc3c(c2-c2cc4ccnc(NCc5ccc(F)c(F)c5)c4s2)C(=O)N2CCC[C@@H]32)o1` [Compound 63], the values for the EC50 in assay [1] and in assay [2] were 2.8 nM and 78.5 nM, respectively.

With `Cc1nnc(-c2c(CCC3CCOCC3)nc3c(c2-c2cc4ccnc(NCc5cccc(F)c5)c4s2)C(=O)N2CCC[C@@H]32)o1` [Compound 70], the EC50 in assay [1] came out at 45 nM; in assay [2] it was 811 nM.

The record behind these values is US20250051355A1, “COMPOUNDS, COMPOSITIONS, AND METHODS” (ACONCAGUA BIO, INC., priority 2023, published 2025).
